Assay results published in patent US20260284143A1, “METHOD OF USING BIOACTIVE PEPTIDE FRACTION ISOLATED FROM CANARY SEED” (Purdue Research Foundation, priority 2023, published 2026).

Experiments:
C57BL/6J mice [1] = experiment: Organ and epididymal fat weight; assay type: in vivo; details: orlistat 40 mg/kg/day, 8 weeks, Western diet
Protocol: The total body weight gain (g/animal), daily feed intake (g/animal/day), and water consumption was monitored weekly throughout the study. The fecal collection was done per cage, separating fecal matter from bedding on a weekly basis and then stored at −80±3° C. until analysis. After the eight weeks of the study, animals were sacrificed by CO2 asphyxiation. Immediately after, blood was collected by cardiac puncture.

C57BL/6J mice [2] = experiment: Serum biochemical analysis (TG, HDL, LDL/VLDL, total cholesterol); assay type: in vivo; details: orlistat 40 mg/kg/day, 8 weeks, fasting serum
Protocol: Total serum high-density lipoprotein (HDL), low-density lipoprotein (LDL)/very low-density lipoprotein (VLDL), and total cholesterol levels were quantified with HDL, and LDL/VLDL Colorimetric/Fluorometric assay Kit (LSK314100) obtained from Lifespan Bioscience (Seattle, […], USA). The assays were carried out following the manufacturer's instructions, and the absorbance was measured using Multiskan™ FC Microplate Photometer (Waltham, MA, USA). In addition, serum triglyceride (TG) levels were measured using a triglyceride colorimetric kit (LSK302200) purchased from Lifespan Bioscience (Seattle, DC, USA).

C57BL/6J mice [3] = experiment: Fasting serum levels of metabolic hormones (ELISA); assay type: in vivo; details: orlistat 40 mg/kg/day, 8 weeks
Protocol: Mouse serum was analyzed to quantify total serum ghrelin using a mouse enzyme-linked immunosorbent assay (ELISA) ghrelin kit (EIAM-GHR-1) obtained from Raybiotech (Norcross, GA, USA), serum leptin by mouse leptin Duoset ELISA kit (DY49805) obtained from R&D Systems (Minneapolis, MN, USA), serum adiponectin and insulin by commercial mouse ELISA kits (KMP0041 and EMINS) obtained from Thermo Fisher Scientific (Waltham, MA, USA). All assays were carried out following the manufacturer's instructions. Finally, the absorbances were quantified at 450 nm and turbidity corrections at 590 nm using Multiskan™ FC Microplate Photometer (Waltham, MA, USA).

[4] = target: T1, pancreatic lipase type-VI (Sus scrofa, UniProt P00591); experiment: Pancreatic lipase inhibition and jump dilution (residence time); assay type: biochemical
T1 sequence (P00591 1-450): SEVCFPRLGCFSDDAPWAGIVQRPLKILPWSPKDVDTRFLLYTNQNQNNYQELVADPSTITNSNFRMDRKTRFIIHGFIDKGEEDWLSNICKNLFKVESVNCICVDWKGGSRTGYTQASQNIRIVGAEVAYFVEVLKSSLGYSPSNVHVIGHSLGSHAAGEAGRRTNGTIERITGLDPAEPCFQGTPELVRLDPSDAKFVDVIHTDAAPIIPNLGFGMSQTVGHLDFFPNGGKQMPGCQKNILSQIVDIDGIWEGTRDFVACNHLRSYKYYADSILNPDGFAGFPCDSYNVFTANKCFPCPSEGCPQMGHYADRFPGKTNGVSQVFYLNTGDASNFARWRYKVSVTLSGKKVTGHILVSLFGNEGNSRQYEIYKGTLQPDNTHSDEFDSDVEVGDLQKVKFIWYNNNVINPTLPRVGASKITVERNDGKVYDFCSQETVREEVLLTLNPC
Protocol: Pancreatic lipase inhibition was measured according to the procedures described in our previous study. Briefly, samples, substrate, and pancreatic lipase were dis-solved in McIlvaine buffer (0.1 M Citrate-Na2HPO4, pH 7.4). Then, 50 μL of substrate 4-methylumbelliferyl oleate (1 mM) was pre-incubated with 25 μL of peptide sample for 10 min in a black 96-well microplate. Then, 25 μL of pancreatic lipase type-VI (200 U/mL) were pipetted, and the reaction was carried out for one hour. The production of 4-methylumbelliferone was measured fluorometrically using a Fluoroskan Ascent FL Microplate Fluorometer and Luminometer, ThermoFisher Scientific (Waltham, MA, USA) using an excitation wavelength of 355 nm and emission wavelength of 460 nm. The positive control (no inhibitor) used the buffer instead of the sample, and buffer was used instead of pancreatic lipase solution for negative control (no pancreatic lipase activity). Finally, a jump dilution experiment was carried out, as previously reported by Kumar and Lowery. Briefly, enzyme-inhibitor complexes were formed by pre-incubating the substrate, pancreatic lipase (6000 U/mL), and inhibitors (10×IC50) for three hours. […] Finally, the residence time was calculated by measuring tau determined as the reciprocal of koff after fitting the enzyme progress curves to Equation (1).

pancreatic lipase = details: peptides identified from fractionated canary seed proteins; cited from earlier work

For `CCCCCCCCCCC[C@@H](C[C@@H]1OC(=O)[C@H]1CCCCCC)OC(=O)[C@H](CC(C)C)NC=O` [orlistat], the Kidney weight (C57BL/6J mice [1]) was 402.08 ± 7.43 a mg, the “serum TG concentration vs WD” value (C57BL/6J mice [2]) was “effective in lowering” and the “serum total cholesterol vs WD” value (C57BL/6J mice [2]) was “no difference”. For the same molecule, the serum ghrelin concentration (C57BL/6J mice [3]) was “increased”, the “reversibility of pancreatic lipase inhibition” value ([4]; 30-fold jump dilution) was “slow reversibility” and the “inhibition of pancreatic lipase (PL) in pre-formed complexes” value ([4]; inhibitor 10×IC50, monitored for three hours) was “Complete inhibition”.
For LADR, the “inhibitory activity towards pancreatic lipase” value (pancreatic lipase) is given as “high inhibitory activity”.
In the case of LSPR, the “inhibitory activity towards pancreatic lipase” value (pancreatic lipase) is listed as “high inhibitory activity”.
For TVGPR, the “inhibitory activity towards pancreatic lipase” value (pancreatic lipase) is given as “high inhibitory activity”.
For VPPR, the “inhibitory activity towards pancreatic lipase” value (pancreatic lipase) is listed as “high inhibitory activity”.
